Measurements reported in US20100292231A1, “Indazole Compounds for Treating Inflammatory Disorders, Demyelinating Disorders and Cancers” (priority 2007, published 2010).
pEC50: −log10 of the molar value. Like-named read-outs stand apart in the source and are kept apart here.

Assays:
Test in all cases: SelectScreen kinase specificity survey
Format in all cases: biochemical
[1] = biological target: T1, ABL1 (Homo sapiens, UniProt P00519); conditions: estimated, abridged dose response curve, read-out: Kinase inhibitory activity EC50
T1 construct: purchased Invitrogen (SelectScreen platform)
Outline: (§1)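 Curves built from five inhibitor increments were fitted by four-parameter Hill regression to estimate EC50. Each kinase reaction used a dedicated substrate with optical detection and 100 micromolar ATP, referenced to uninhibited control phosphorylation.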

[2] = biological target: T2, ABL2 (Arg) (Homo sapiens, UniProt P42684); conditions: estimated, abridged dose response curve, read-out: Kinase inhibitory activity EC50
T2 construct: purchased Invitrogen (SelectScreen platform)
Outline: as §1

[3] = biological target: T3, AKT2 (PKB beta) (Homo sapiens, UniProt P31751); conditions: estimated, abridged dose response curve, read-out: Kinase inhibitory activity EC50
T3 construct: purchased Invitrogen (SelectScreen platform)
T3 sequence (P31751 whole entry): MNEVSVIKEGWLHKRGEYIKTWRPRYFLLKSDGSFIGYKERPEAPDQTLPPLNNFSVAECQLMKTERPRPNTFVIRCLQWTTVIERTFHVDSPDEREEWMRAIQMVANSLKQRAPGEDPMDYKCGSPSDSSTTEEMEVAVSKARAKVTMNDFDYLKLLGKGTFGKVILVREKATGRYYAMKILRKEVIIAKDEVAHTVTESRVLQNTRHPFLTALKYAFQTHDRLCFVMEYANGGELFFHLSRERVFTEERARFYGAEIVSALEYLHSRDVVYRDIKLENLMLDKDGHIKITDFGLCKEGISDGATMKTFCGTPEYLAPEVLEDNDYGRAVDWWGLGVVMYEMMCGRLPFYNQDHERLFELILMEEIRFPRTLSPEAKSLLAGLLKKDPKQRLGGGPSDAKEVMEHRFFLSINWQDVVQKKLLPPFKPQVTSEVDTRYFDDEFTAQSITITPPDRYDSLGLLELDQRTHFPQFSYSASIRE
Outline: as §1

[4] = biological target: T4, BLK (Homo sapiens, UniProt P51451); conditions: estimated, abridged dose response curve, read-out: Kinase inhibitory activity EC50
T4 construct: purchased Invitrogen (SelectScreen)
Outline: as §1

[5] = biological target: T5, BRAF V599E (Homo sapiens, UniProt P15056, V600E); conditions: estimated, abridged dose response curve, read-out: Kinase inhibitory activity EC50
T5 construct: purchased Invitrogen, Inc. (SelectScreen platform)
Outline: as §1

[6] = biological target: T6, BRSK1 (SAD1) (Homo sapiens, UniProt Q8TDC3)
T6 construct: purchased Invitrogen, Inc. (SelectScreen platform)
Outline: as §1

[7] = biological target: T7, CDC42 BPA (MRCKA) (Homo sapiens, UniProt Q5VT25); conditions: estimated, abridged dose response curve, read-out: Kinase inhibitory activity EC50
T7 construct: purchased Invitrogen (SelectScreen platform)
Outline: as §1

[8] = biological target: T8, CLK1 (Homo sapiens, UniProt P49759); conditions: estimated, abridged dose response curve, read-out: Kinase inhibitory activity EC50
T8 construct: purchased Invitrogen (SelectScreen platform)
T8 sequence (P49759 whole entry): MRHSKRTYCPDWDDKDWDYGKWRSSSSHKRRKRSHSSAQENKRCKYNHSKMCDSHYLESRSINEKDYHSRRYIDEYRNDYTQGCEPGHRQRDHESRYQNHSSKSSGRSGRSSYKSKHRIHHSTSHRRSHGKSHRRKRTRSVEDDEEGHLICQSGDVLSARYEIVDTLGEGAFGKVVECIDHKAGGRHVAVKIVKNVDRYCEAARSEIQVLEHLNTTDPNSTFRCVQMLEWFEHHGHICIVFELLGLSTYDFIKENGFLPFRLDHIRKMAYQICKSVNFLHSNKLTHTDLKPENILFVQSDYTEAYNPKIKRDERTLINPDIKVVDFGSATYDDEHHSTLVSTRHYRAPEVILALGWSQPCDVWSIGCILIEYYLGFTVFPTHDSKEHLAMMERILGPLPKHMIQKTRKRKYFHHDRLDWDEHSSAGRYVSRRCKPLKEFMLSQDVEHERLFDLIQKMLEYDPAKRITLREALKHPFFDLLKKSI
Outline: as §1

[9] = biological target: T9, CSF1R (FMS) (Homo sapiens, UniProt P07333); conditions: estimated, abridged dose response curve, read-out: Kinase inhibitory activity EC50
T9 construct: purchased Invitrogen (SelectScreen platform)
T9 sequence (P07333 20-972): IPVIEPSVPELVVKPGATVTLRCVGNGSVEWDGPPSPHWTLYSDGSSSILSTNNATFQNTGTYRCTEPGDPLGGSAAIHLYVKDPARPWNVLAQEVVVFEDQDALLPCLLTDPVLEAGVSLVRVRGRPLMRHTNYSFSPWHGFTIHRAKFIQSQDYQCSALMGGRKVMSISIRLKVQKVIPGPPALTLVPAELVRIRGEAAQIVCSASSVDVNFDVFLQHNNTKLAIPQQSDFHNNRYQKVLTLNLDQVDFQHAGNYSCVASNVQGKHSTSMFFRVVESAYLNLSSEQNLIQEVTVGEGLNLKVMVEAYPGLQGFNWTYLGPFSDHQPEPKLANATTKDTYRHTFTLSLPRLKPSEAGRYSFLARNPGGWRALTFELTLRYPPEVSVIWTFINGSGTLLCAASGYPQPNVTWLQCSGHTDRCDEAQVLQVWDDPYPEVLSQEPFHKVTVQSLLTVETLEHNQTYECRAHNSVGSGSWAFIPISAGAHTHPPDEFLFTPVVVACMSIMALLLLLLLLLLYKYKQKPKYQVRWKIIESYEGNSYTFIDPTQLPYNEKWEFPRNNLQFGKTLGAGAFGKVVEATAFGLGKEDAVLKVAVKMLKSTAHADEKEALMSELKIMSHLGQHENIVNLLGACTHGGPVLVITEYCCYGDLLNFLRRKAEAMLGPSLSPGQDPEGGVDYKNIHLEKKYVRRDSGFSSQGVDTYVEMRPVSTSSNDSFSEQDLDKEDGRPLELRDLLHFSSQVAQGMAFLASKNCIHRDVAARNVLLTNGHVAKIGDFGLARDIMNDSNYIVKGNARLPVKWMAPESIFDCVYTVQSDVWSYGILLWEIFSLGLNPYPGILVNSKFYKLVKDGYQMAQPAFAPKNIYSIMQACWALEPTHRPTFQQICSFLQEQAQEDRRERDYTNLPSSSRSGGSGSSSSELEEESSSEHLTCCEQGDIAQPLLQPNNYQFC
Outline: as §1

[10] = biological target: T10, CSK (Homo sapiens, UniProt P41240); conditions: estimated, abridged dose response curve, read-out: Kinase inhibitory activity EC50
T10 construct: purchased Invitrogen (SelectScreen service)
T10 sequence (P41240 whole entry): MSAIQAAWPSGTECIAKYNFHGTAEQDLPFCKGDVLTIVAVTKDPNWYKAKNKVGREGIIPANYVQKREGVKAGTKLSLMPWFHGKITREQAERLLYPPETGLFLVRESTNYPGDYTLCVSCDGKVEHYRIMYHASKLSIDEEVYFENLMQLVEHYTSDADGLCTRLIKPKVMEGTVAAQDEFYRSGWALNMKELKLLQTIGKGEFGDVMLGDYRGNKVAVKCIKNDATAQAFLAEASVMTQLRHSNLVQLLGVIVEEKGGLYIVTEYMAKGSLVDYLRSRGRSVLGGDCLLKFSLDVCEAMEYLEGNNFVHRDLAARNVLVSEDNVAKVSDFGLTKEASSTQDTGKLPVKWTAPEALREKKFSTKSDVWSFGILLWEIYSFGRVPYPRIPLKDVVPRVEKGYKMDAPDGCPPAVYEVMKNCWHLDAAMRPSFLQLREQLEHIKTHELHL
Outline: as §1

[11] = biological target: T11, EEF2K (Homo sapiens, UniProt O00418); conditions: estimated, abridged dose response curve, read-out: Kinase inhibitory activity EC50
T11 construct: purchased Invitrogen, Inc. (SelectScreen platform)
Outline: as §1

[12] = biological target: T12, EPHA2 (Homo sapiens, UniProt P29317); conditions: estimated, abridged dose response curve, read-out: Kinase inhibitory activity EC50
T12 construct: purchased Invitrogen (SelectScreen service)
Outline: as §1

[13] = biological target: T13, EPHA4 (Homo sapiens, UniProt P54764); conditions: estimated, abridged dose response curve, read-out: Kinase inhibitory activity EC50
T13 construct: purchased Invitrogen (SelectScreen service)
Outline: as §1

[14] = biological target: T14, GSK3B (GSK3 beta) (Homo sapiens, UniProt P49841); conditions: estimated, abridged dose response curve, read-out: Kinase inhibitory activity EC50
T14 construct: purchased Invitrogen (SelectScreen platform)
Outline: as §1

[15] = biological target: T15, HIPK4 (Homo sapiens, UniProt Q8NE63); conditions: estimated, abridged dose response curve, read-out: Kinase inhibitory activity EC50
T15 construct: purchased Invitrogen (SelectScreen platform)
Outline: as §1

[16] = biological target: T16, KDR (VEGFR2) (Homo sapiens, UniProt P35968); conditions: estimated, abridged dose response curve, read-out: Kinase inhibitory activity EC50
T16 construct: purchased Invitrogen, Inc. (SelectScreen platform)
Outline: as §1

[17] = biological target: T17, LCK (Homo sapiens, UniProt P06239); conditions: estimated, abridged dose response curve, read-out: Kinase inhibitory activity EC50
T17 construct: purchased Invitrogen (SelectScreen)
Outline: as §1

[18] = biological target: T18, MAP3K8 (COT) (Homo sapiens, UniProt P41279); conditions: estimated, abridged dose response curve, read-out: Kinase inhibitory activity EC50
T18 construct: purchased Invitrogen, Inc. (SelectScreen service)
Outline: as §1

[19] = biological target: T19, MERTK (cMER) (Homo sapiens, UniProt Q12866); conditions: estimated, abridged dose response curve, read-out: Kinase inhibitory activity EC50
T19 construct: purchased Invitrogen (SelectScreen service)
T19 sequence (Q12866 21-999): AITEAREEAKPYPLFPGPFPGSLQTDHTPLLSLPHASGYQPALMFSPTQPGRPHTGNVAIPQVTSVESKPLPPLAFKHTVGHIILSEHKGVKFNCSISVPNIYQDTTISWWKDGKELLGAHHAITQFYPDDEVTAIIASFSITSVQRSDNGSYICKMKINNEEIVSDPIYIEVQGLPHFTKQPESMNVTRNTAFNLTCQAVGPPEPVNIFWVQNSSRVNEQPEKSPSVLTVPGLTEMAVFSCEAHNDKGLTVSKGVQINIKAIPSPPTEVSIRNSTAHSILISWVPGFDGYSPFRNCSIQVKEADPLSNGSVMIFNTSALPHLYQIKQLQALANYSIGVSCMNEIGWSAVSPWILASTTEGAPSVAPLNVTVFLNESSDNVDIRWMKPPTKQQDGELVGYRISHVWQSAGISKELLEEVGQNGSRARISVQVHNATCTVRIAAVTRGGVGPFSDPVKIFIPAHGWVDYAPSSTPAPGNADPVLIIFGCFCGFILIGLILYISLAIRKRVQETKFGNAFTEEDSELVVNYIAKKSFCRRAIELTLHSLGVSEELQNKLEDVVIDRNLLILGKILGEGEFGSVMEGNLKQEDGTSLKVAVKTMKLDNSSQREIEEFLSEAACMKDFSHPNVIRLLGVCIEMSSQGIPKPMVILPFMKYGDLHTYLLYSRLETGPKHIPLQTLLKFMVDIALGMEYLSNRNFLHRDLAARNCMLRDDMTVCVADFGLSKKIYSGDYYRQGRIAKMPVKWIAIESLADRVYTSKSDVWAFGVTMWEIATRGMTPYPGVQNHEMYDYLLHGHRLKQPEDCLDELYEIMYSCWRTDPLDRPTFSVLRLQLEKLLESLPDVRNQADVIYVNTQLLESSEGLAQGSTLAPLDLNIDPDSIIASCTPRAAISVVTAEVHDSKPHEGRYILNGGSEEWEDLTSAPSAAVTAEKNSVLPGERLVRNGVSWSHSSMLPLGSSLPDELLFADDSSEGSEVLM
Outline: as §1

[20] = biological target: T20, MUSK (Homo sapiens, UniProt O15146); conditions: estimated, abridged dose response curve, read-out: Kinase inhibitory activity EC50
T20 construct: purchased Invitrogen (SelectScreen platform)
Outline: as §1

[21] = biological target: T21, PDGFRA T674I (Homo sapiens, UniProt P16234, T674I); conditions: estimated, abridged dose response curve, read-out: Kinase inhibitory activity EC50
T21 construct: purchased Invitrogen (SelectScreen platform)
Outline: as §1

[22] = biological target: T22, PHKG2 (Homo sapiens, UniProt P15735); conditions: estimated, abridged dose response curve, read-out: Kinase inhibitory activity EC50
T22 construct: purchased Invitrogen, Inc. (SelectScreen platform)
T22 sequence (P15735 whole entry): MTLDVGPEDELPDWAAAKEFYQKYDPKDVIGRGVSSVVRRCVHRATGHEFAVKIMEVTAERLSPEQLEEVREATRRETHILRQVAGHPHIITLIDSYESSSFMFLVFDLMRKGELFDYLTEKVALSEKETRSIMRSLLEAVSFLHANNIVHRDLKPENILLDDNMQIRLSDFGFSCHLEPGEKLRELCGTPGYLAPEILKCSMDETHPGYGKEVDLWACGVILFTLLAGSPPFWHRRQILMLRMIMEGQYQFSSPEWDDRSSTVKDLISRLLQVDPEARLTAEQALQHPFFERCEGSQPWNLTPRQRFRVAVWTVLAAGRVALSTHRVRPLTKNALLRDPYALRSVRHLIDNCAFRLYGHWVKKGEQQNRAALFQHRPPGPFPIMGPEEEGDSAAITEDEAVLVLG
Outline: as §1

[23] = biological target: T23, PLK2 (Homo sapiens, UniProt Q9NYY3); conditions: estimated, abridged dose response curve, read-out: Kinase inhibitory activity EC50
T23 construct: purchased Invitrogen, Inc. (SelectScreen service)
Outline: as §1

[24] = biological target: T24, PRKCB1 (PKC beta I) (Homo sapiens, UniProt P05771); conditions: estimated, abridged dose response curve, read-out: Kinase inhibitory activity EC50
T24 construct: purchased Invitrogen (SelectScreen platform)
Outline: as §1

[25] = biological target: T25, PTK6 (Brk) (Homo sapiens, UniProt Q13882); conditions: estimated, abridged dose response curve, read-out: Kinase inhibitory activity EC50
T25 construct: purchased Invitrogen (SelectScreen)
Outline: as §1

[26] = biological target: T26, RET (Homo sapiens, UniProt P07949); conditions: estimated, abridged dose response curve, read-out: Kinase inhibitory activity EC50
T26 construct: purchased Invitrogen (SelectScreen)
T26 sequence (P07949 29-1114): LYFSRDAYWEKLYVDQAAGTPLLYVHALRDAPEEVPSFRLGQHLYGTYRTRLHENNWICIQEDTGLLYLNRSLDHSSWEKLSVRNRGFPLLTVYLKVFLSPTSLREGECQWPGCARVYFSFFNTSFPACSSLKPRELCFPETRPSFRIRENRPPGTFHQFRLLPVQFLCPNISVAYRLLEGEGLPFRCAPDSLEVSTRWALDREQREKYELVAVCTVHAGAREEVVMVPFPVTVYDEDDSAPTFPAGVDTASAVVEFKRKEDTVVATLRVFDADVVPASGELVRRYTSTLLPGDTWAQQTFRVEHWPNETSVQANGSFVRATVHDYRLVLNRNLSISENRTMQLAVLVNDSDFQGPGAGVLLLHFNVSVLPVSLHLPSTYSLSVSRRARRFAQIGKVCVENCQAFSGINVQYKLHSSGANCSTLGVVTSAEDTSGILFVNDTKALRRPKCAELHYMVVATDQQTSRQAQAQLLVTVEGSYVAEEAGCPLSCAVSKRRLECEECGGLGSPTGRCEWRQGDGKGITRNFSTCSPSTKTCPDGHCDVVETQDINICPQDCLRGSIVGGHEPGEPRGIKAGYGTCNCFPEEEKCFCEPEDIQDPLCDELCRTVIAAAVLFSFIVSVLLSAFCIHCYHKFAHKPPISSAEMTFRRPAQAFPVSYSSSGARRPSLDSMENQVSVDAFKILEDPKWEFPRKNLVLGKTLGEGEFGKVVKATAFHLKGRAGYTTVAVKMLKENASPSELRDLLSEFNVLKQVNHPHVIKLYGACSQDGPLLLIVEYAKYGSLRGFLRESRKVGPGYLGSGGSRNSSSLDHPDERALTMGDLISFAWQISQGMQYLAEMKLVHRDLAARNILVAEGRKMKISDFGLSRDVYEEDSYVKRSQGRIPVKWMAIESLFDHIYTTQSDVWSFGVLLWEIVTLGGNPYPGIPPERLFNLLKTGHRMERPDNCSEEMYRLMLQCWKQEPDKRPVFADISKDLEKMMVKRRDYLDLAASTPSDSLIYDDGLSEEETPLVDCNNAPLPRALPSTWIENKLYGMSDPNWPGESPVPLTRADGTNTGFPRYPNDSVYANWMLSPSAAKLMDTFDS
Outline: as §1

[27] = biological target: T27, STK4 (MST1) (Homo sapiens, UniProt Q13043); conditions: estimated, abridged dose response curve, read-out: Kinase inhibitory activity EC50
T27 construct: purchased Invitrogen (SelectScreen platform)
Outline: as §1

SMILES | pEC50 [1] | pEC50 [2] | pEC50 [3] | pEC50 [4] | pEC50 [5] | pEC50 [7] | pEC50 [8] | pEC50 [9] | pEC50 [10] | pEC50 [11] | pEC50 [12] | pEC50 [13] | pEC50 [14] | pEC50 [15] | pEC50 [16] | pEC50 [17] | pEC50 [18] | pEC50 [19] | pEC50 [20] | pEC50 [21] | other results
CCN(CC)CCNc1ccc2ncn3c4ccc(O)cc4c(=O)c1c23 [Symadex, 5-(2-(diethylamino)ethylamino)-8-hydroxy-6H-imidazo[4,5,1-de]acridin-6-one, reference compound] | < 5.30 | 5.49 | < 5.30 | 6.66 | 5.47 | < 5.30 | 5.66 | 6.37 | < 5.30 | < 5.30 | < 5.30 | < 5.30 | < 5.30 | 5.74 | 5.80 | 6.08 | 5.33 | 5.44 | 5.43 | < 5.30 | pEC50 [6]: 5.71; pEC50 [22]: < 5.30; pEC50 [23]: < 5.30; pEC50 [24]: < 5.30; pEC50 [25]: < 5.30; pEC50 [26]: 5.95; pEC50 [27]: < 5.30
CN(C)CCCNc1ccc2ncn3c4ccc5[nH]ncc5c4c(=O)c1c23 [Compound (IV)] | 5.42 | 5.54 | < 5.30 | 6.32 | 5.93 | < 5.30 | 6.35 | 6.69 | < 5.30 | < 5.30 | < 5.30 | < 5.30 | < 5.30 | 5.88 | 6.08 | 6.46 | < 5.30 | < 5.30 | 5.84 | < 5.30 | pEC50 ([6]; BRSK1 (SAD1), estimated, abridged dose response curve, read-out: Kinase inhibitory activity EC50): 5.86; pEC50 [22]: 5.43; pEC50 [23]: < 5.30; pEC50 [24]: < 5.30; pEC50 [25]: < 5.30; pEC50 [26]: 6.23; pEC50 [27]: 5.66
